Patent US20250099455A1, “TREATMENT FOR CONGESTIVE HEART FAILURE” (FibroGen, Inc., priority 2022, published 2025)
Read-outs that look alike come from different tables or passages of the source.

Key:
PHD2 = PHD2 (Homo sapiens (Human), UniProt Q9GZT9); test: HIF-PH assay (14CO2 capture), PHD2; format: biochemical
Description: The selectivity profile for the compound of Formula I can be determined using, for example, any assay familiar and commonly accessible to those skilled in the art, e.g., the following HIF-PH assay. Ketoglutaric acid α-[1-^14C]-sodium salt, alpha-ketoglutaric acid sodium salt, and HPLC purified peptide may be obtained from commercial sources, e.g., Perkin-Elmer (Wellesley MA), Sigma-Aldrich, and SynPep Corp. (Dublin CA), respectively. Peptides for use in the assay may be fragments of HIFα as described above or as disclosed in International Publication WO 2005/118836, incorporated by reference herein. HIF-PH, e.g., PHD1 (EGLN2) or PHD2 (EGLN1), can be expressed in, e.g., insect Hi5 cells, and partially purified, e.g., through a SP ion exchange chromatography column. Enzyme activity is determined by capturing ^14CO2 using an assay described by Kivirikko and Myllyla (1982, Methods Enzymol. 82:245-304). […] The peptide-dependent percent turnover is calculated by subtracting percent turnover in the absence of peptide from percent turnover in the presence of substrate peptide. Percent inhibition and IC50 are calculated using peptide-dependent percent turnover at given inhibitor concentrations. […] IC50 of test compound for PHD1 and for PHD2 and/or PHD3 can be readily determined using the above method, and used to assess the selectivity of the compound for inhibition of PHD1.

[1] = Tissue distribution in mice; format: in vivo, mouse; settings: for Compound of Formula 1 (μg/mL or μg/g): male Swiss Webster mice, single iv dose 60 mg/kg; for Kp at 4 h / Kp at 8 h: male, Swiss Webster, mouse, mice, single iv 60 mg/kg, read-out: Tissue/plasma ratio
Description: • N=3/time point, male Swiss Webster mice, single iv dose, 60 mg/kg Compound of Formula I

Chain of PHD2 (Q9GZT9 whole entry, species assumed, the tested form may be a part): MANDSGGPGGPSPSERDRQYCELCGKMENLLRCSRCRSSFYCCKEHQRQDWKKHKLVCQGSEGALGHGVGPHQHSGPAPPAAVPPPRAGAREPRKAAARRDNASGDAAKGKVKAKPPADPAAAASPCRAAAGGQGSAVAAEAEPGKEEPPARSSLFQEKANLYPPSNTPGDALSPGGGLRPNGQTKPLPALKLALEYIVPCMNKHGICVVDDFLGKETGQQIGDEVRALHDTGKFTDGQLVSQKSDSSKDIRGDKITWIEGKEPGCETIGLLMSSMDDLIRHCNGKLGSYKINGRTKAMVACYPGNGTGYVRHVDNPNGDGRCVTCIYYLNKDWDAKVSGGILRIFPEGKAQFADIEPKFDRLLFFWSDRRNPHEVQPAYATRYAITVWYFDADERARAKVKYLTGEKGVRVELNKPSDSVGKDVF

SMILES: CC(C)(CC(=O)O)NC(=O)c1nc(C#N)c2cc(Oc3ccccc3)ccc2c1O [Formula I, 3-[(1-cyano-4-hydroxy-7-phenoxy-isoquinoline-3-carbonyl)-amino]-3-methyl-butyric acid]
- IC50 (PHD2; Table 1): 20.4 µM
- IC50 (PHD2; additional experiment, Table 1A): 16.9 µM
- Compound of Formula 1 (μg/mL or μg/g) ([1]; Colon, 4 h post dose): 12.9 ± 2.7 μg/mL or μg/g
- Compound of Formula 1 (μg/mL or μg/g) ([1]; Colon, 8 h post dose): 16.1 ± 6.3 μg/mL or μg/g
- Compound of Formula 1 (μg/mL or μg/g) ([1]; Duodenum, 4 h post dose): 19.1 ± 5.6 μg/mL or μg/g
- Compound of Formula 1 (μg/mL or μg/g) ([1]; Duodenum, 8 h post dose): 21.8 ± 4.1 μg/mL or μg/g
- Compound of Formula 1 (μg/mL or μg/g) ([1]; Heart, 4 h post dose): 10.4 ± 4.6 μg/mL or μg/g
- Compound of Formula 1 (μg/mL or μg/g) ([1]; Heart, 8 h post dose): 7.4 ± 2.1 μg/mL or μg/g
- Compound of Formula 1 (μg/mL or μg/g) ([1]; Kidney, 4 h post dose): 9.2 ± 3.4 μg/mL or μg/g
- Compound of Formula 1 (μg/mL or μg/g) ([1]; Kidney, 8 h post dose): 7.2 ± 1.9 μg/mL or μg/g
- Compound of Formula 1 (μg/mL or μg/g) ([1]; Liver, 4 h post dose): 40.2 ± 7.2 μg/mL or μg/g
- Compound of Formula 1 (μg/mL or μg/g) ([1]; Liver, 8 h post dose): 38.4 ± 4.6 μg/mL or μg/g
- Compound of Formula 1 (μg/mL or μg/g) ([1]; Plasma, 4 h post dose): 56.6 ± 10.6 μg/mL or μg/g
- Compound of Formula 1 (μg/mL or μg/g) ([1]; Plasma, 8 h post dose): 43.3 ± 11.0 μg/mL or μg/g
- Kp at 4 h ([1]; Colon, 4 h post dose): 0.23
- Kp at 8 h ([1]; Colon, 8 h post dose): 0.37
- Kp at 4 h ([1]; Duodenum, 4 h post dose): 0.34
- Kp at 8 h ([1]; Duodenum, 8 h post dose): 0.5
- Kp at 4 h ([1]; Heart, 4 h post dose): 0.18
- Kp at 8 h ([1]; Heart, 8 h post dose): 0.17
- Kp at 4 h ([1]; Kidney, 4 h post dose): 0.16
- Kp at 8 h ([1]; Kidney, 8 h post dose): 0.17
- Kp at 4 h ([1]; Liver, 4 h post dose): 0.71
- Kp at 8 h ([1]; Liver, 8 h post dose): 0.89
- Kp at 4 h ([1]; Plasma, 4 h post dose): 1
- Kp at 8 h ([1]; Plasma, 8 h post dose): 1
